Measured values: patent US8198325B2, “Unsaturated alkyl esters of 5-aminolevulinic acid, their preparation and their use” (Industry Foundation of Chonnam National University, priority 2006, dated 2012)

Legend:
[1] = system: skin of ICR mice (epidermis, sebaceous gland); assay: Cell death in skin tissue after ointment and LED irradiation, H&E (FIGS. 9, 10); assay type: in vivo
Description: Ointments comprising ALA or the ALA esters of the present invention at various concentrations (5˜15%) were applied in a predetermined amount ([…]) to the back of shaved ICR mice.
1 and 4 hours after the application, the back was irradiated with LED visible light (dose 25 J/cm^2).
24, 48 and 72 hours after the irradiation, skin samples were taken from the back of the mice, stained with hematoxylin-eosin (H&E) and observed for cell death.

[2] = system: Squamous cell carcinoma (A431); assay: Cytotoxicity test (cell survival), MTT assay, A431; assay type: cell-based; settings: 24 hours
Description: (§1) 3. Cytotoxicity Test (Cell Survival Test)
(§2) Cytotoxicity was conducted through an MTT assay (Chemicon, Serologicals Corporation, USA) as follows.
(§3) Cells were seeded at a density of 3×10^4 cells/well in 96-well plates (Nunc Do, Denmark).
(§4) When the cells were at a confluence of about 60˜70%, 24 hours after seeding, the media was exchanged for 100 μl of fresh, serum-free media containing various respective concentrations of ALA or ALA-ester, after which the cells were incubated for an additional 24 hours.
(§5) An MTT solution (0.5 mg/mL) was added in an amount of […] to each well, followed by incubation for 4 hours to form formazan crystals. A color-developing solution (isopropanol with 0.04 N HCl) was added in an amount of […] per well to solubilize the formazan crystals.
(§6) The plates were measured for absorbance at 570 nm using an ELISA reader (EMAX, Molecular Device, USA).
(3) Squamous Cell Carcinoma (A431)

[3] = system: Malignant melanoma (TMX 13); assay: Cytotoxicity test (cell survival), MTT assay, TXM 13; assay type: cell-based; settings: 24 hours
Description: as §1, §2, §3, §4, §5, §6
(4) Malignant Melanoma (TMX 13)

[4] = system: Human epidermal keratinocyte (HEK); assay: Cytotoxicity test (cell survival), MTT assay, HEK; assay type: cell-based; settings: 24 hours; for MTT absorbance (OD): 570 nm; for Cell survival Avg (%) ± SD (%): Table 3; for activity at 10 µM / activity at 2000 µM / activity at 50 µM / activity at 100 µM / activity at 500 µM / activity at 1000 µM / activity at 5000 µM: Homo sapiens, Table 2, read-out: Cell survival (% of control C, in brackets); for activity at 10 µM: HEK001, 0.01 mM; for activity at 2000 µM: HEK2, 2 mM; for activity at 50 µM / activity at 100 µM / activity at 500 µM / activity at 1000 µM / activity at 5000 µM: Keratinocyte
Description: as §1, §2, §3, §4, §5, §6
(1) Human Epidermal Keratinocyte (HEK)
Cell survival of the human epidermal keratinocytes treated with ALA esters of the present invention and with ALA was compared. The results are summarized in Tables 1 and 2, which are represented in different manners depending on the measurements.

[5] = system: Human dermal fibroblast (hF); assay: Cytotoxicity test (cell survival), MTT assay, hF; assay type: cell-based; settings: 24 hours
Description: as §1, §2, §3, §4, §5, §6
(2) Human Dermal Fibroblast (hF)

A431 cells = assay: Fluorescence spectroscopy of PpIX synthesis in A431 cells (FIG. 1); assay type: cell-based; settings: 4 hours incubation, excitation 405 nm, emission 605 nm
Description: 4. Fluorescence Spectroscopy
The synthesis of PpIX, induced by ALA and unsaturated alkyl esters of ALA in cells and skin tissues, was quantified using fluorescence spectroscopy.
The intensity of PpIX was measured on a fluorescence spectrophotometer (Uvikon, model 943) with excitation at 408 nm.
Each cell line was plated at a density of 2×10^5 cells in a 10 cm^2-dish (Falcon), and when the cells reached a confluent state of 70˜80%, serum-free media containing various concentrations (0.001˜1 mM) of ALA or ALA esters was added to the cells, followed by incubation for 4 hours.
After being washed once with PBS, the cells were detached with a 50% methanol solution containing 1M […] (HClO4) and scraped off using a Costar cell scraper.
The cells thus harvested were incubated for 5 min and centrifuged.
The fluorescence of the supernatant thus obtained was determined using a spectrofluorometer with excitation at 405 nm and emission at 605 nm.
The results are graphed in FIGS. 1 and 2.

Structure (SMILES)	Cell survival Avg (%) ± SD (%) ([2]; A431, 0.01 mM)	Cell survival Avg (%) ± SD (%) ([2]; A431, 0.05 mM)	Cell survival Avg (%) ± SD (%) ([2]; A431, 0.5 mM)	Cell survival Avg (%) ± SD (%) ([2]; A431, 1 mM)	Cell survival Avg (%) ± SD (%) ([2]; A431, 2 mM)	Cell survival Avg ± SD (%) ([3]; TXM 13, 0.01 mM)	Cell survival Avg ± SD (%) ([3]; TXM 13, 0.05 mM)	Cell survival Avg ± SD (%) ([3]; TXM 13, 0.1 mM)	Cell survival Avg ± SD (%) ([3]; TXM 13, 0.5 mM)	Cell survival Avg ± SD (%) ([3]; TXM 13, 1 mM)	Cell survival Avg ± SD (%) ([3]; TXM 13, 2 mM)	MTT absorbance (OD) ([4]; 0.01 mM)	MTT absorbance (OD) ([4]; 0.05 mM)	Cell survival Avg (%) ± SD (%) ([4]; 0.05 mM)	MTT absorbance (OD) ([4]; 0.1 mM)	Cell survival Avg (%) ± SD (%) ([4]; 0.1 mM)	MTT absorbance (OD) ([4]; 0.5 mM)	Cell survival Avg (%) ± SD (%) ([4]; 0.5 mM)	MTT absorbance (OD) ([4]; 1 mM)	Cell survival Avg (%) ± SD (%) ([4]; 1 mM)	further results
COC(=O)CCC(=O)CN [ALA-1, 5-Aminolevulinic acid methyl ester, reference compound]	101.03 ± 0.71%	103.06 ± 1.05%	101.75 ± 3.52%	101.45 ± 1.54%	98.4 ± 1.2%	104.69 ± 6.64%	100.34 ± 4.39%	87.37 ± 8.13%	64.59 ± 3.95%	69.86 ± 8.83%	69.94 ± 13.42%	2.952 OD	3.482 OD	94.01 ± 0.71%	3.313 OD	125.58 ± 1.05%	3.421 OD	88.14 ± 0.95%	3.435 OD	72.02 ± 3.52%	Sebaceous gland morphology after irradiation ([1]; 24 hours after visible light 25 J/cm^2, FIG. 10): destroyed partially or wholly; Epidermis histology (H&E) after irradiation ([1]; 48 hours after visible light 25 J/cm^2, FIGS. 9B and 9C): both necrosis and rejuvenation; Cell survival Avg (%) ± SD (%) ([4]; 0.01 mM): 116.69 ± 1%; MTT absorbance (OD) ([4]; 2 mM): 3.093 OD; Cell survival Avg (%) ± SD (%) ([4]; 2 mM): 83.69 ± 1.54%; MTT absorbance (OD) ([4]; 5 mM): 2.398 OD; activity at 10 µM [4]: 88.8%; activity at 2000 µM [4]: 93%; activity at 50 µM ([4]; 0.05 mM): 104%; activity at 100 µM ([4]; 0.1 mM): 99.6%; activity at 500 µM ([4]; 0.5 mM): 103%; activity at 1000 µM ([4]; 1 mM): 103%; activity at 5000 µM ([4]; 5 mM): 69%; Cell survival Avg (%) ± SD (%) ([5]; 0.01 mM): 110.33 ± 15.01%; Cell survival Avg (%) ± SD (%) ([5]; 0.05 mM): 116.86 ± 17.63%; Cell survival Avg (%) ± SD (%) ([5]; 0.1 mM): 110.44 ± 17.98%; Cell survival Avg (%) ± SD (%) ([5]; 0.5 mM): 113 ± 22.58%; Cell survival Avg (%) ± SD (%) ([5]; 1 mM): 120.48 ± 10.91%; Cell survival Avg (%) ± SD (%) ([5]; 2 mM): 87.65 ± 14.77%; PpIX synthesis compared with ALA (A431 cells): greater PpIX synthesis in A431 cells than did ALA
C=CCCCOC(=O)CCC(=O)CN [ALA-4, 5-Aminolevulinic acid 4-pentenyl ester]	101.68 ± 0.81%	102.51 ± 0.54%	80.91 ± 1.6%	80.11 ± 3.43%	84.57 ± 1.77%	96.3 ± 14.69%	83.42 ± 12.09%	72.55 ± 9.25%	75.01 ± 13.79%	60.95 ± 8.31%	49.85 ± 53.24%	2.8 OD	2.603 OD	66.21 ± 0.59%	2.98 OD	53.63 ± 0.51%	2.561 OD	50.17 ± 0.51%	2.475 OD	57.17 ± 1.60%	Cell survival Avg (%) ± SD (%) ([2]; A431, 0.1 mM): 93.24 ± 2.17%; MTT absorbance (OD) ([4]; 2 mM): 2.407 OD; Cell survival Avg (%) ± SD (%) ([4]; 2 mM): 44.82 ± 3.43%; MTT absorbance (OD) ([4]; 5 mM): 1.354 OD; activity at 10 µM [4]: 77.3%; activity at 2000 µM [4]: 66.3%; activity at 50 µM ([4]; 0.05 mM): 71.6%; activity at 100 µM ([4]; 0.1 mM): 82%; activity at 500 µM ([4]; 0.5 mM): 70.5%; activity at 1000 µM ([4]; 1 mM): 68.3%; activity at 5000 µM ([4]; 5 mM): 37.1%; Cell survival Avg (%) ± SD (%) ([5]; 0.01 mM): 101.13 ± 13.45%; Cell survival Avg (%) ± SD (%) ([5]; 0.05 mM): 114.49 ± 17.1%; Cell survival Avg (%) ± SD (%) ([5]; 0.1 mM): 103.35 ± 14.09%; Cell survival Avg (%) ± SD (%) ([5]; 0.5 mM): 95.81 ± 10.6%; Cell survival Avg (%) ± SD (%) ([5]; 1 mM): 100.32 ± 6.36%; Cell survival Avg (%) ± SD (%) ([5]; 2 mM): 93.13 ± 8.07%; PpIX synthesis compared with ALA (A431 cells): greater PpIX synthesis in A431 cells than did ALA
C=CCCOC(=O)CCC(=O)CN [ALA-3, 5-Aminolevulinic acid 3-butenyl ester]	104.08 ± 0.59%	105.59 ± 0.51%	97.46 ± 3.82%	97.65 ± 4.75%	102.85 ± 1.53%	102.16 ± 10.55%	95.03 ± 10%	96.89 ± 7.99%	90.58 ± 3.8%	92.34 ± 4.31%	78.81 ± 6.22%	2.919 OD	3.57 OD	94.01 ± 0.59%	3.413 OD	125.58 ± 0.51%	2.838 OD	88.14 ± 0.51%	2.592 OD	72.02 ± 3.82%	Cell survival Avg (%) ± SD (%) ([2]; A431, 0.1 mM): 105.48 ± 0.51%; Cell survival Avg (%) ± SD (%) ([4]; 0.01 mM): 116.69 ± 0.69%; MTT absorbance (OD) ([4]; 2 mM): 2.185 OD; Cell survival Avg (%) ± SD (%) ([4]; 2 mM): 83.69 ± 4.75%; MTT absorbance (OD) ([4]; 5 mM): 2.101 OD; activity at 10 µM [4]: 83.8%; activity at 2000 µM [4]: 63.1%; activity at 50 µM ([4]; 0.05 mM): 103%; activity at 100 µM ([4]; 0.1 mM): 98.2%; activity at 500 µM ([4]; 0.5 mM): 81.8%; activity at 1000 µM ([4]; 1 mM): 74.9%; activity at 5000 µM ([4]; 5 mM): 60.5%; Cell survival Avg (%) ± SD (%) ([5]; 0.01 mM): 114.28 ± 5.4%; Cell survival Avg (%) ± SD (%) ([5]; 0.05 mM): 126.76 ± 3.88%; Cell survival Avg (%) ± SD (%) ([5]; 0.1 mM): 115.65 ± 6.85%; Cell survival Avg (%) ± SD (%) ([5]; 0.5 mM): 110.21 ± 4.21%; Cell survival Avg (%) ± SD (%) ([5]; 1 mM): 96.59 ± 16.88%; Cell survival Avg (%) ± SD (%) ([5]; 2 mM): 94.97 ± 9.7%
